Experimental findings from ChEMBL document CHEMBL1125886, “Interphenylene 7-oxabicyclo[2.2.1]heptane thromboxane A2 antagonists. Semicarbazone omega-chains” (J Med Chem, 1991) are described below.

In one series the target is T1, Thromboxane A2 receptor (Homo sapiens, UniProt P21731).
T1 sequence (P21731 whole entry): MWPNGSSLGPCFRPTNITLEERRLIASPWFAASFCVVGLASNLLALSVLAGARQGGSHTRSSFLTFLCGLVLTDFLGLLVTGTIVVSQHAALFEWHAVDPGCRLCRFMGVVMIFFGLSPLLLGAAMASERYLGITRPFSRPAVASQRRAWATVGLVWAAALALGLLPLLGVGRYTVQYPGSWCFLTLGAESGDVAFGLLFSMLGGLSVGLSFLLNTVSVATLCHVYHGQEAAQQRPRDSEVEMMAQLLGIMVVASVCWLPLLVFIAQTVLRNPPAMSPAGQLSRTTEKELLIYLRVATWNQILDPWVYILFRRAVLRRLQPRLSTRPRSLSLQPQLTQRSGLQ
As to the kind of experiment: The compound was tested for inhibition of specific binding of [3H]-SQ 29,548 to thromboxane A2 receptor in human platelet membranes. The class given is cell membranes.

For series [1], the species on record is Homo sapiens. Nature of the series: The compound was tested for inhibition of arachidonic acid(800 uM) induced platelet aggregation in human platelet rich plasma. The class given is functional. The note with it: read-out: I50.
The species entered for series [2] is Homo sapiens. As to the kind of experiment: The compound was tested for inhibition of U-46,619(10 uM) induced platelet aggregation in human platelet rich plasma(PRP). In kind it is functional. As to conditions: read-out: I50.
The test system of series [3] is Mus musculus. Nature of the series: The compound was tested in vivo for duration of action after 0.2 mg/kg peroral administration to protect from U-46,619-induced(2.0 mg/kg, iv) death in mice. The class given is ADME, organism-based. The arrangement: dose 0.2 mg/kg, route oral. As to conditions: po.
Series [4] concerns Mus musculus. Nature of the series: The compound was tested in vivo for duration of action after 10 mg/kg peroral administration to protect from U-46,619-induced(2.0 mg/kg, iv) death in mice. The class given is ADME, organism-based. On the set-up: dose 10 mg/kg, route oral. As to conditions: po.

For `O=C(O)CCC/C=C\CC1C2CCC(O2)C1/C=N/NC(=O)Nc1ccccc1` (stereo not drawn), binding on Thromboxane A2 receptor was put at a Kd of 39.4 nM. Also, the values for the IC50 in the series listed under Homo sapiens [1] and in the series filed under Homo sapiens [2] were 230 nM and 710 nM, respectively.

For the compound `O=C(O)CCCc1ccccc1CC1C2CCC(O2)C1/C=N/NC(=O)Nc1ccccc1` (stereo not drawn), at Thromboxane A2 receptor, the Kd was 21.1 nM. Also, in the series with Mus musculus [3], the T50 came to 8.7 h. For the same compound, the IC50 in the series listed under Homo sapiens [1] amounted to 12 nM; in the series listed under Homo sapiens [2] it was 72 nM.

As to `O=C(O)CCc1ccccc1CC1C2CCC(O2)C1/C=N/NC(=O)Nc1ccccc1` (stereo not drawn), the Kd at Thromboxane A2 receptor stood at 1 nM. The T50 with Mus musculus [3] is 16 h. Also, the IC50 was 3 nM in the series filed under Homo sapiens [1] and 12 nM in the series filed under Homo sapiens [2].

Consider `O=C(O)Cc1cccc(CC2C3CCC(O3)C2/C=N/NC(=O)Nc2ccccc2)c1` (stereo not drawn), for which the T50 stood at 8.3 h with Mus musculus [4] and 1.7 h in the series on Mus musculus [3]. On Thromboxane A2 receptor, this compound registered a Kd of 171 nM. The IC50 in the series filed under Homo sapiens [1] was determined as 370 nM; in the series filed under Homo sapiens [2], 4600 nM.

In turn, `O=C(O)Cc1cccc(CCC2C3CCC(O3)C2/C=N/NC(=O)Nc2ccccc2)c1` (stereo not drawn) yielded a Kd at Thromboxane A2 receptor of 1070 nM. Moreover, the IC50 in the series listed under Homo sapiens [1] was determined as 30000 nM; in the series listed under Homo sapiens [2], 133000 nM.

As for `O=C(O)Cc1ccc(CC2C3CCC(O3)C2/C=N/NC(=O)Nc2ccccc2)cc1` (stereo not drawn), the IC50 in the series listed under Homo sapiens [1] turned out to be 310000 nM.

Compound `O=C(O)COc1ccccc1CC1C2CCC(O2)C1/C=N/NC(=O)Nc1ccccc1` (stereo not drawn) returned a dissociation constant Kd at Thromboxane A2 receptor of 6 nM. This compound showed a T50 in the series with Mus musculus [3] of 3.6 h. In addition, the IC50 was 15 nM in the series listed under Homo sapiens [1] and 46 nM in the series listed under Homo sapiens [2].

`O=C(O)COc1cccc(CC2C3CCC(O3)C2/C=N/NC(=O)Nc2ccccc2)c1` (stereo not drawn) came in with a Kd on Thromboxane A2 receptor of 1200 nM. The IC50 came out at 7200 nM in the series filed under Homo sapiens [1] and 25000 nM in the series listed under Homo sapiens [2].

For `O=C(O)Cc1ccc(CCC2C3CCC(O3)C2/C=N/NC(=O)Nc2ccccc2)cc1` (stereo not drawn), the IC50 in the series filed under Homo sapiens [1] turned out to be 688000 nM.
